{"source": "paper PMC6424980", "about": "“Distinct G protein-coupled receptor phosphorylation motifs modulate arrestin affinity and activation and global conformation” (Nature Communications, 2019)", "key": {"arrestin-1 (F85A, F197A)": {"test_system": "arrestin-1 (F85A, F197A)", "assay": "Limited trypsin digestion of arrestin-1 in presence of peptide", "type": "biochemical, bovine", "conditions": "arrestin:peptide 1:1.2, 35 °C, SDS PAGE", "text": "Synthesized cDNAs of bovine arrestin-1, human arrestin-2 and human arrestin-3 were ordered from Genewiz, amplified by PCR and cloned (Supplementary Information Table 5) into the pET-15b vector (Novagen), using the Gibson Assembly protocol. The constructs contained an N-terminal hexa histidine tag linked by a linker that contained a Tobacco Etch Virus cleavage site (TEV; […]). PCR was used to introduce the monomerizing arrestin-1 mutations (F85A, F197A)[58]. Note that this mutant was employed for fluorescence anisotropy, trypsin digestion, and NMR experiments. Wild-type arrestin-2 and -3 were used for fluorescence anisotropy and trypsin digestion experiments. […] The arrestin-1 in this construct had the wild-type sequence. Note that this construct differs slightly from that previously published[59],[60] and was optimized for purification. We verified the functionality of this fusion construct using the standard centrifugal pull-down assay using phosphorylated rhodopsin in native ROS membranes.\nArrestin (60 µg) was mixed at a 1 to 1.2 molar ratio with peptide and preincubated at RT for 5 min before 1 μl of 0.15 mg/ml trypsin stock was added. The enzymatic digestion was carried out at 35 °C (20 mM Bis-Tris propane pH 7.0, 150 mM NaCl, 10 mM 2‑Mercaptoethanol and 2 mM EDTA). At certain time points (5, 15, 30, 60, 90 min), 5 μl aliquots were quenched with heat incubation in the presence of 20 μl SDS loading buffer (95 °C, 5 min) and then subjected to SDS PAGE. Bands were visualized with InstantBlue (Expedeon)."}, "arrestin-1": {"test_system": "arrestin-1", "assay": "[15N,1H]TROSY NMR titration of arrestin-1 with peptide", "type": "binding, bovine", "conditions": "peptide:arrestin-1 up to 10:1", "experimental": "^2H,^15N,^13C-labeled arrestin-1 aliquots were thawed quickly under running water, transferred to 30 kDa-cutoff Vivaspin (0.5 ml, Sartorius) centrifugal spin concentrators, and concentrated to approximately 600 μM. The concentrator was immediately transferred into a beaker filled with 400 ml of NMR buffer 1 or 2 (see below) carried by a floatation device. The dialysis was performed at 4 °C overnight. On the next day the concentration was determined by UV absorbance at 280 nm (molar extinction coefficient 26,360/mol/cm). […] The dialysis was performed at 4 °C overnight, and the peptide concentration was determined by its absorbance at 205 nm (molar extinction coefficient: 54,310/mol/cm). […]\nNMR measurements were performed on Bruker Avance III-HD 600 or 900 MHz spectrometer using a CTCI cryo-cooled probehead. […] Pulse lengths were calibrated for ^1H manually and for ^13C/^15N using an in-house automated procedure. pH was monitored using the position of the phosphate signal in NMR buffer 2 as an internal reference and varied by no more than 0.03 pH units during peptide titration experiments. [^15N,^1H]TROSY experiments were recorded with internal ETH pulse sequences, whereas 3D triple resonance TROSY experiments were recorded using the manufacturer’s pulse sequences. […]"}}}
{"sequence": "CDDEASTTVSKTETSQVAPA [5P, multiply phosphorylated rhodopsin C-terminus peptide lacking key site pS343]", "values": [{"measurement": "limited trypsin digest pattern of arrestin-1 (conformational change, C-tail displacement)", "setting": "arrestin-1 (F85A, F197A)", "result": "inability to induce conformational changes"}, {"measurement": "NMR chemical shift / peak changes in arrestin-1 (in words)", "setting": "arrestin-1", "result": "minimal chemical shift changes"}]}
